Measurements: BindingDB's records for doi:10.1021/jm00128a043 (Wellcome Research Laboratories, 1989)

Columns and labels:
[1] = Inhibition of Staphylococcus aureus DHFR
[2] = Antibacterial activity against Staphylococcus aureus

Compound	Ki [1] [nM]	Ki [2] [nM]
C=CCc1cc(Cc2cnc(N)nc2N)cc(OC)c1OC	2.8	
C/C=C/c1cc(Cc2cnc(N)nc2N)cc(OC)c1OC	1.4	
C=CCOc1cc(Cc2cnc(N)nc2N)cc(OC)c1OC		3
CCCc1cc(Cc2cnc(N)nc2N)cc(CCC)c1OC		3.2

The next lines start with the values.

Ki [1] [nM]	Ki [2] [nM]	Compound
1.4		CCCOc1cc(Cc2cnc(N)nc2N)cc(OC)c1OC
2.5		CCOc1cc(Cc2cnc(N)nc2N)cc(OC)c1OC
